How the values were obtained:
Test in all cases: relative viability (nuclei count vs DMSO), 5 days (fraction); higher = more cells survive
201T = tested on: 201T
How it was run: (§1)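 Cells from lung cancer lines were seeded into 1536-well plates and, one day later, dosed by pin tool. Treatments were either a single drug or a fixed dose of an anchor drug with five library-drug doses (not always all listed) in √10 steps. After 5 days, nuclei were stained in a one-step fixation (final 0.05% Triton X-100, 1% formaldehyde, 1 ug/ml Hoechst) and counted on 4× images, and relative viability is the treated-to-vehicle nuclei ratio, as the median of duplicate plates.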

ABC-1 = tested on: ABC-1
How it was run: as §1

BEN = tested on: BEN
How it was run: as §1

CAL-12T = tested on: CAL-12T
How it was run: as §1

COR-L 105 = tested on: COR-L 105
How it was run: as §1

COR-L23 = tested on: COR-L23
How it was run: as §1

EKVX = tested on: EKVX
How it was run: as §1

HARA = tested on: HARA
How it was run: as §1

HCC-366 = tested on: HCC-366
How it was run: as §1

LK-2 = tested on: LK-2
How it was run: as §1

LU99A = tested on: LU99A
How it was run: as §1

NCI-H1437 = tested on: NCI-H1437
How it was run: as §1

NCI-H1650 = tested on: NCI-H1650
How it was run: as §1

NCI-H1666 = tested on: NCI-H1666
How it was run: as §1

NCI-H2009 = tested on: NCI-H2009
How it was run: as §1

NCI-H2023 = tested on: NCI-H2023
How it was run: as §1

NCI-H2170 = tested on: NCI-H2170
How it was run: as §1

NCI-H3122 = tested on: NCI-H3122
How it was run: as §1

NCI-H441 = tested on: NCI-H441
How it was run: as §1

NCI-H661 = tested on: NCI-H661
How it was run: as §1

NCI-H727 = tested on: NCI-H727
How it was run: as §1

NCI-H838 = tested on: NCI-H838
How it was run: as §1

PC-14 = tested on: PC-14
How it was run: as §1

SW 900 = tested on: SW 900
How it was run: as §1

Compound: C[C@@H]1CN(CC(=O)Nc2ccc3c(c2)Cc2cccc(-c4cc(=O)cc(N5CCOCC5)o4)c2S3)C[C@H](C)O1 + Cc1cc(Nc2cc(N3CCN(C)CC3)nc(Sc3ccc(NC(=O)C4CC4)cc3)n2)n[nH]1 [Tozasertib] (partner 0.1 µM)
- relative viability (201T; first compound 0.04 µM): 0.93
- relative viability (201T; first compound 0.1265 µM): 0.882
- relative viability (201T; first compound 0.4 µM): 0.909
- relative viability (201T; first compound 4 µM): 0.922
- relative viability (ABC-1; first compound 0.1265 µM): 0.159
- relative viability (ABC-1; first compound 0.4 µM): 0.184
- relative viability (ABC-1; first compound 4 µM): 0.16
- relative viability (BEN; first compound 0.04 µM): 0.449
- relative viability (BEN; first compound 0.1265 µM): 0.49
- relative viability (BEN; first compound 0.4 µM): 0.447
- relative viability (BEN; first compound 4 µM): 0.478
- relative viability (CAL-12T; first compound 0.04 µM): 0.306
- relative viability (CAL-12T; first compound 0.1265 µM): 0.366
- relative viability (CAL-12T; first compound 0.4 µM): 0.296
- relative viability (CAL-12T; first compound 4 µM): 0.217
- relative viability (COR-L 105; first compound 0.04 µM): 0.321
- relative viability (COR-L 105; first compound 0.1265 µM): 0.332
- relative viability (COR-L 105; first compound 0.4 µM): 0.352
- relative viability (COR-L 105; first compound 4 µM): 0.296
- relative viability (COR-L23; first compound 0.04 µM): 0.199
- relative viability (COR-L23; first compound 0.1265 µM): 0.218
- relative viability (COR-L23; first compound 0.4 µM): 0.159
- relative viability (COR-L23; first compound 4 µM): 0.137
- relative viability (EKVX; first compound 0.04 µM): 0.389
- relative viability (EKVX; first compound 0.1265 µM): 0.44
- relative viability (EKVX; first compound 0.4 µM): 0.432
- relative viability (EKVX; first compound 4 µM): 0.305
- relative viability (HARA; first compound 0.1265 µM): 0.105
- relative viability (HARA; first compound 0.4 µM): 0.0954
- relative viability (HARA; first compound 4 µM): 0.104
- relative viability (HCC-366; first compound 0.04 µM): 0.165
- relative viability (HCC-366; first compound 0.1265 µM): 0.132
- relative viability (HCC-366; first compound 0.4 µM): 0.0609
- relative viability (HCC-366; first compound 4 µM): 0.0509
- relative viability (LK-2; first compound 0.1265 µM): 0.174
- relative viability (LK-2; first compound 0.4 µM): 0.185
- relative viability (LK-2; first compound 4 µM): 0.17
- relative viability (LU99A; first compound 0.04 µM): 0.243
- relative viability (LU99A; first compound 0.1265 µM): 0.257
- relative viability (LU99A; first compound 0.4 µM): 0.246
- relative viability (LU99A; first compound 4 µM): 0.251
- relative viability (NCI-H1437; first compound 0.04 µM): 0.379
- relative viability (NCI-H1437; first compound 0.1265 µM): 0.354
- relative viability (NCI-H1437; first compound 0.4 µM): 0.395
- relative viability (NCI-H1437; first compound 4 µM): 0.365
- relative viability (NCI-H1650; first compound 0.04 µM): 0.433
- relative viability (NCI-H1650; first compound 0.1265 µM): 0.375
- relative viability (NCI-H1650; first compound 0.4 µM): 0.344
- relative viability (NCI-H1650; first compound 4 µM): 0.239
- relative viability (NCI-H1666; first compound 0.04 µM): 0.637
- relative viability (NCI-H1666; first compound 0.1265 µM): 0.689
- relative viability (NCI-H1666; first compound 0.4 µM): 0.622
- relative viability (NCI-H1666; first compound 4 µM): 0.43
- relative viability (NCI-H2009; first compound 0.04 µM): 0.856
- relative viability (NCI-H2009; first compound 0.1265 µM): 0.682
- relative viability (NCI-H2009; first compound 0.4 µM): 0.593
- relative viability (NCI-H2009; first compound 4 µM): 0.503
- relative viability (NCI-H2023; first compound 0.04 µM): 0.406
- relative viability (NCI-H2023; first compound 0.1265 µM): 0.285
- relative viability (NCI-H2023; first compound 0.4 µM): 0.238
- relative viability (NCI-H2023; first compound 4 µM): 0.175
- relative viability (NCI-H2170; first compound 0.04 µM): 0.708
- relative viability (NCI-H2170; first compound 0.1265 µM): 0.764
- relative viability (NCI-H2170; first compound 0.4 µM): 0.719
- relative viability (NCI-H2170; first compound 4 µM): 0.614
- relative viability (NCI-H3122; first compound 0.04 µM): 0.4
- relative viability (NCI-H3122; first compound 0.1265 µM): 0.403
- relative viability (NCI-H3122; first compound 0.4 µM): 0.265
- relative viability (NCI-H3122; first compound 4 µM): 0.293
- relative viability (NCI-H441; first compound 0.04 µM): 0.601
- relative viability (NCI-H441; first compound 0.1265 µM): 0.678
- relative viability (NCI-H441; first compound 0.4 µM): 0.528
- relative viability (NCI-H441; first compound 4 µM): 0.49
- relative viability (NCI-H661; first compound 0.04 µM): 0.345
- relative viability (NCI-H661; first compound 0.1265 µM): 0.366
- relative viability (NCI-H661; first compound 0.4 µM): 0.355
- relative viability (NCI-H661; first compound 4 µM): 0.366
- relative viability (NCI-H727; first compound 0.04 µM): 0.797
- relative viability (NCI-H727; first compound 0.1265 µM): 0.736
- relative viability (NCI-H727; first compound 0.4 µM): 0.572
- relative viability (NCI-H727; first compound 4 µM): 0.57
- relative viability (NCI-H838; first compound 0.04 µM): 0.255
- relative viability (NCI-H838; first compound 0.1265 µM): 0.279
- relative viability (NCI-H838; first compound 0.4 µM): 0.28
- relative viability (NCI-H838; first compound 4 µM): 0.202
- relative viability (PC-14; first compound 0.04 µM): 0.451
- relative viability (PC-14; first compound 0.1265 µM): 0.562
- relative viability (PC-14; first compound 0.4 µM): 0.579
- relative viability (PC-14; first compound 4 µM): 0.482
- relative viability (SW 900; first compound 0.04 µM): 0.463
- relative viability (SW 900; first compound 0.1265 µM): 0.579
- relative viability (SW 900; first compound 0.4 µM): 0.476
- relative viability (SW 900; first compound 4 µM): 0.335

Reference: the supplement of paper PMC10307832
